According to PubChem BioAssay (NCI):
Values joined by “and” are separate entries in the source; they are usually repeats but may differ in a detail not shown here. Equal entries are not always repeated.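 48-hour exposure; five concentrations; linearly interpolated endpoints. Abbreviation: GI50, concentration required for 50% inhibition of growth. The concentration for full growth arrest is given as TGI.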

Experiments:
Test in all cases: NCI anticancer screen, dose series, 48 h
CCRF-CEM leukemia = system: CCRF-CEM leukemia
HCC-2998 colon = system: HCC-2998 colon
OVCAR-3 ovarian = system: OVCAR-3 ovarian
OVCAR-4 ovarian = system: OVCAR-4 ovarian
OVCAR-8 ovarian = system: OVCAR-8 ovarian
SF-268 CNS = system: SF-268 CNS
SNB-75 CNS = system: SNB-75 CNS
U251 CNS = system: U251 CNS
UACC-257 melanoma = system: UACC-257 melanoma
UO-31 renal = system: UO-31 renal

SMILES	TGI (CCRF-CEM leukemia)	TGI (HCC-2998 colon)	TGI (OVCAR-3 ovarian)	TGI (OVCAR-4 ovarian)	TGI (OVCAR-8 ovarian)	TGI (SF-268 CNS)	TGI (SNB-75 CNS)	TGI (U251 CNS)	TGI (UACC-257 melanoma)	TGI (UO-31 renal)	GI50 (CCRF-CEM leukemia)	GI50 (HCC-2998 colon)	GI50 (OVCAR-3 ovarian)	GI50 (OVCAR-4 ovarian)	GI50 (OVCAR-8 ovarian)	GI50 (SF-268 CNS)	GI50 (SNB-75 CNS)	GI50 (U251 CNS)	GI50 (UACC-257 melanoma)	GI50 (UO-31 renal)
O=C1[C@H]2ON(c3ccccc3)C(c3ccc([N+](=O)[O-])cc3)[C@H]2C(=O)N1c1ccc(Cc2ccc(N3C(=O)[C@@H]4ON(c5ccccc5)C(c5ccc([N+](=O)[O-])cc5)[C@@H]4C3=O)cc2)cc1 (stereo partly specified)	> 100 µM	> 100 µM	> 100 µM	> 100 µM	> 100 µM	> 100 µM	> 100 µM	> 100 µM	> 100 µM	> 100 µM										
O=c1c2c(nc3n1CCS3)[nH]c1cc([N+](=O)[O-])ccc12	> 100 µM	> 100 µM	81.2 µM	> 100 µM	> 100 µM	> 100 µM	> 100 µM	> 100 µM	> 100 µM	> 100 µM	> 100 µM	> 100 µM	25.5 µM	> 100 µM	> 100 µM	> 100 µM	57.1 µM	> 100 µM	> 100 µM	> 100 µM
Oc1ccc(C=Nc2ccccc2O)cc1	> 100 µM	> 100 µM	> 100 µM	> 100 µM	> 100 µM	> 100 µM	> 100 µM	> 100 µM	65.3 µM	> 100 µM										
O=C1NC(=C(Cl)Cl)/C(=N/S(=O)(=O)N2CCCCC2)N1	4.92 µM	5.22 µM	3.78 µM	3.47 µM	4.6 µM	6.53 µM	3.77 µM	3.12 µM	7.07 µM	12.4 µM	2.19 µM	2.28 µM	2.09 µM	1.8 µM	2.1 µM	2.43 µM	1.76 µM	1.71 µM	2.43 µM	2.87 µM
Fc1ccc(-c2c(-c3ccncc3)nc3n2CCS3)cc1	> 25 µM	> 25 µM	> 25 µM	> 25 µM	> 25 µM	> 25 µM	> 25 µM	> 25 µM	> 25 µM	> 25 µM	> 25 µM	> 25 µM	> 25 µM	> 25 µM	> 25 µM	> 25 µM	> 25 µM	> 25 µM	> 25 µM	> 25 µM
CC(C)C[C@H](NC(=O)CNC(=O)c1cc(Cl)ccc1Cl)B(O)O	> 100 µM	0.0436 µM	0.0292 µM	5.45 µM	15.3 µM	0.22 µM	0.124 µM	2.81 µM	0.0492 µM	0.0406 µM	0.0203 µM	0.0199 µM	< 0.0141 µM	0.061 µM	0.0659 µM	0.0343 µM	0.0256 µM	0.0504 µM	0.0153 µM	< 0.0131 µM
COc1ccc2ncn(-c3cc(O[C@H](C)c4ccccc4C(F)(F)F)c(C(N)=O)s3)c2c1	14.5 µM	3.27 µM	0.863 µM	16.1 µM	8.81 µM	8.95 µM	6.6 µM	6.24 µM	6.28 µM	12.4 µM	0.0821 µM	0.161 µM	0.0858 µM	3.49 µM	0.117 µM	0.235 µM	0.917 µM	0.166 µM	2.55 µM	1.79 µM
NNC(=O)C(=O)N/N=C(\CCCC(=O)Nc1ccc(Cl)cc1)CC(=O)c1ccc(F)cc1	> 100 µM	> 100 µM	> 100 µM	> 100 µM	> 100 µM	> 100 µM	> 100 µM	> 100 µM	> 100 µM	> 100 µM										
Cc1onc(-c2ccccc2)c1C(=O)N/N=C/c1cc(Cl)cc(Cl)c1O	14.7 µM	18.2 µM	26.6 µM	> 100 µM	> 100 µM	> 100 µM	> 100 µM	57.6 µM	27.3 µM	12.9 µM	1.48 µM	4.13 µM	3.82 µM	2.07 µM	3.59 µM	3.44 µM	6.75 µM	3.19 µM	3.47 µM	1.83 µM
COC(=O)[C@@H]1c2cc3c(c(O)c2[C@@H](OC2OC(C)C(OC)C(C)(OC)C2OC)C[C@]1(C)O)C(=O)c1c(O)cc2c(c1C3=O)O[C@H]1O[C@]2(C)[C@H](O)[C@@H](N(C)C)[C@@H]1O (stereo partly specified)	0.198 µM and 0.258 µM	0.0305 µM and 0.0223 µM		0.291 µM	0.532 µM and 0.348 µM	0.329 µM and 0.135 µM	0.0522 µM and 0.0125 µM	0.443 µM and 0.236 µM	0.0638 µM and 0.0472 µM	0.983 µM and 1.17 µM			0.0683 µM						0.0123 µM	0.21 µM
O=C(CCC(=O)Nc1ccc(Cl)c(Cl)c1)Cc1nc2ccccc2o1	> 100 µM	> 100 µM	> 100 µM	> 100 µM	> 100 µM	> 100 µM	> 100 µM	> 100 µM	> 100 µM	> 100 µM										
C=C[C@@H](C)[C@]1(C(=O)OC)CCCC12OCCO2	> 100 µM	> 100 µM	> 100 µM	> 100 µM	> 100 µM	> 100 µM	> 100 µM	> 100 µM	> 100 µM	> 100 µM										
N#C/C(=C\c1cc(O)cc(O)c1)C(N)=O	> 100 µM	> 100 µM	> 100 µM	> 100 µM	> 100 µM	> 100 µM	> 100 µM	> 100 µM	> 100 µM	> 100 µM										
C[C@@H](Oc1cc(-n2cnc3ccc(OC4CCN(C)CC4)cc32)sc1C(N)=O)c1ccccc1Cl	4.19 µM	2.98 µM	3.2 µM	9.09 µM	3.36 µM	4.69 µM	2.89 µM	4.13 µM	5.4 µM	5.95 µM	0.00953 µM	0.0234 µM	0.00858 µM	1.62 µM	0.0197 µM	0.022 µM	0.0614 µM	0.0155 µM	0.0249 µM	1.74 µM
COc1ccc(Nc2nc3cc(N)cc(N)c3nc2-c2ccccc2)cc1	> 100 µM	> 100 µM	37.3 µM	22.1 µM	30.6 µM	30.6 µM	42.6 µM	29.8 µM	27.5 µM	34.2 µM	12 µM	28.1 µM	17.3 µM	10.4 µM	13.9 µM	13 µM	14.6 µM	16.3 µM		16.6 µM
